From patent publication US20050163831A1, “Patch for transdermal administration” (Hisamitsu Pharmaceutical Co., Inc., priority 2002, published 2005)

How the values were obtained:
[1] = system: yeast-induced paw inflammation and nociception; experiment: yeast-induced paw inflammation and nociception test in rats; type: in vivo; conditions: 100 μL of 3% (w/v) solution in acetone applied to footpad for 3 hours; measured 3 hours after yeast injection; p<0.01 vs control
Source text: Preliminary Test 2 (yeast-induced paw inflammation and nociception test in rats) First, SD male rats with weight of around 130 g were used to measure a pain threshold value (g) by using analgesimeter (Analgesy 7200, Ugo Basile) according to the method of Randall & […]. and […] method for measurement of analgesic activity on inflamed tissue. (1957) Arch. Int. Pharmacodyn. 4, 409-419], while defining removal reaction against pressure irritation to a right hind footpad as the index, and they were grouped such that there was no difference between the average pain threshold values of both groups. […] On the other hand, acetone was applied to the control group. After sufficient drying after the application, the rats were housed in separate cages without covering treatment. At this time, for the purpose of preventing oral drug intake, a collar was attached to all the rats including the control group. After 3 hours from the application described above, valdecoxib remaining at the applied site was wiped off with absorbent cotton having been dipped in slightly warm water and, immediately after the wipe, each 100 μL of a yeast suspension (20% Baker's Yeast) was injected subcutaneously to all the rats including the control group to induce inflammation. […] The obtained results are illustrated in FIG. 1.

[2] = permeability test through hairless mouse skin (flow-through cell); type: in vitro ADME; conditions: for maximum value of the permeability rate of the drug per unit area of the skin, base agent Acetone: 1% (w/v) solution in acetone as donor; for maximum value of the permeability rate of the drug per unit area of the skin, base agent Acetone / maximum value of the permeability rate of the drug per unit area of the skin, base agent IPM / maximum value of the permeability rate of the drug per unit area of the skin, base agent Liquid paraffin / maximum value of the permeability rate of the drug per unit area of the skin, base agent PG: extirpated hairless mouse dorsal skin, 37° C., up to 24 hours; for maximum value of the permeability rate of the drug per unit area of the skin, base agent IPM: saturated solution in isopropyl myristate (IPM) as donor; for maximum value of the permeability rate of the drug per unit area of the skin, base agent Liquid paraffin: saturated solution in liquid paraffin as donor; for maximum value of the permeability rate of the drug per unit area of the skin, base agent PG: saturated solution in propylene glycol (PG) as donor
Experimental: Preliminary Test 1 (permeability test through hairless mouse skin)
A permeability test through hairless mouse skin was conducted for the following 1-12 test solutions:
First, dorsal skin of a hairless mouse was extirpated, which was set to a flow-through cell (effective area: 1 cm^2) with facing the dermis side to the receptor side, where a water of 37° C. was circulating the periphery of the cell. Next, 1 mL of Test solution 1 was charged in a cell on the stratum corneum side of the skin as a donor solution. While using a mixed solution of 40% (v/v) polyethylene glycol 400/physiological saline as a receptor layer, sampling of the receptor solution was carried out at a speed of 5 mL/hour every 2 hours up to 24 hours. For receptor solutions obtained at respective times, the flow volume was measured precisely and the drug concentration was measured by using high-performance liquid chromatography. From the obtained measurement values of the flow volume and drug concentration, the permeability rate per 1 hour was calculated to obtain the maximum value of the permeability rate of the drug per unit area of the skin.

[3] = system: carrageenin-induced paw edema; experiment: carrageenin-induced paw edema test in rats; type: in vivo; conditions: 100 μL of 3% (w/v) solution in acetone applied to footpad for 3 hours; measured 3 hours after carrageenin; p<0.01 vs control
Source text: Preliminary Test 3 (carrageenin-induced paw edema test in rats)
First, SD male rats with weight of around 110 g were used to measure a paw volume (mL) of a right hind footpad by using a water-replacement type paw volume determining device (Model TK-101 CMP, MUROMACHI KIKAI) according to the method of Fujihira et al. [Fujihira Eichi, Screening no Hoho to Mondaiten—Adjuvant Kansetsuen ni yoru Koenshoyaku no Kenteiho (Methods and Problems of Screening—Assay of Antiinflammatory Agent by Adjuvant Arthritis) (1971) Oyo Yakuri (Pharmacometrics) 5,169-183], and they were grouped such that there was no difference between the average paw volume values of both groups. Next, each 100 μL of a 3% (w/v) solution of valdecoxib in acetone was applied to the right hind footpad. On the other hand, acetone was applied to the control group. After sufficient drying after the application, the rats were housed in separate cages without covering treatment. […] After additional 3 hours, the paw volume at the right hind footpad was measured again to calculate an edema ratio (%) according to the following edema ratio calculation method (calculation formula): Edema ratio (%)=[(paw volume after 3 hours from inflammation (mL)−paw volume at ordinary time (mL))/paw volume at ordinary time (mL))]×100 to evaluate the antiinflammatory effect of valdecoxib. […]

Structure (SMILES)	analgesic action (pain threshold value at right hind footpad, FIG. 1) [1]	maximum value of the permeability rate of the drug per unit area of the skin, base agent Acetone [2] [μg/cm^2/hr]	skin permeability (in words) ([2]; compared with celecoxib and rofecoxib, Table 1)	maximum value of the permeability rate of the drug per unit area of the skin, base agent IPM [2] [μg/cm^2/hr]	maximum value of the permeability rate of the drug per unit area of the skin, base agent Liquid paraffin [2] [μg/cm^2/hr]	maximum value of the permeability rate of the drug per unit area of the skin, base agent PG [2] [μg/cm^2/hr]	antiinflammatory action (edema ratio, FIG. 2) [3]
Cc1onc(-c2ccccc2)c1-c1ccc(S(N)(=O)=O)cc1 [valdecoxib, 4-(5-methyl-3-phenylisoxazole-4-yl)benzenesulfonamide]	significant analgesic action	0.59	very high skin permeability	2.97	0.41	4.10	significant antiinflammatory action
CS(=O)(=O)c1ccc(C2=C(c3ccccc3)C(=O)OC2)cc1 [rofecoxib, 3-phenyl-4-(4-methylsulfonylphenyl)-2(5H)-furanone]		0.09		0.00	0.00	0.00	
Cc1ccc(-c2cc(C(F)(F)F)nn2-c2ccc(S(N)(=O)=O)cc2)cc1 [celecoxib, 4-[5-(4-methylphenyl)-3-(trifluoromethyl)pyrazole-1-yl]benzolsulfonamide]		0.3		2.04	0.00	0.90	
